We go through 24 compounds from patent US8354436B2 (4SC Discovery GmbH, priority 2011, dated 2013).

Bounds are passed on as bounds.

Format in all cases: cell-based
Assay [1] deals with PBMC from healthy human donors. In words: T cell proliferation assay (PHA-stimulated human PBMC, BrdU ELISA). The settings on record: PHA-stimulated human PBMC, 48 hours, column D, read-out: IC50 (Tcell proliferation). In outline:
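Proliferation was quantified by BrdU ELISA 48 hours after starting culture of 1×10⁵ human PBMC per well with test compound and 2 μg/ml phytohaemagglutinin. Cells came from healthy donors via Ficoll separation and were kept in RPMI1640 with 10% dialysed heat-inactivated FCS.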

In a further assay the test system is IFN-γ. In words: IFN-γ production by PHA-stimulated human PBMC (OptEIA human IFN-g ELISA). The settings on record: PHA-stimulated human PBMC, 48 hours; column C; read-out: IC50 (IFNγ). Put shortly:
(§1)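 Supernatant cytokine levels are read by bead-based Luminex or sandwich ELISA after 48 h culture of PHA-stimulated (2 μg/ml) human PBMC with compound. Cells are seeded at 1×10^5 per well; IC50 values derive from semilogarithmic dilution series.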
(In general: In an ELISA, binding on a coated surface is turned into a signal by an enzyme label.)

Another assay relates to IL-17FF. In words: IL-17FF production by PHA-stimulated human PBMC (human IL-17F ELI-Pair). The settings on record: PHA-stimulated human PBMC, 48 hours; column B; read-out: IC50 (IL-17FF). Put shortly: as §1

Regarding `CNC(=O)c1c(-c2ccccc2Cl)noc1-c1cnn(-c2cccc(Cl)c2)c1C(F)(F)F` [IB-63, 3-(2-chlorophenyl)-5-(1-(3-chlorophenyl)-5-(trifluoromethyl)-1H-pyrazol-4-yl)-N-methylisoxazole-4-carboxamide], the IC50 (in assay [1]; with IFN-γ; in the assay on IL-17FF) was 100 to 1000 nM in each case.

Consider `CON(C)C(=O)c1c(-c2ccccc2Cl)noc1-c1cnn(-c2cccc(Cl)c2)c1C(F)(F)F` [IB-64, 3-(2-chlorophenyl)-5-(1-(3-chlorophenyl)-5-(trifluoromethyl)-1H-pyrazol-4-yl)-N-methoxy-N-methylisoxazole-4-carboxamide], for which the IC50 in assay [1] lay within 100 to 1000 nM; with IFN-γ, 100 to 1000 nM; in the assay on IL-17FF it was 10 to 100 nM.

As to `COC(=O)c1c(-c2c(F)cccc2Cl)noc1-c1cnn(-c2cccnc2)c1C(F)(F)F` [IB-67, methyl 3-(2-chloro-6-fluorophenyl)-5-(1-(pyridin-3-yl)-5-(trifluoromethyl)-1H-pyrazol-4-yl)isoxazole-4-carboxylate], the IC50 (in assay [1]; with IFN-γ; with IL-17FF) was 10 to 100 nM each time.

`CSC(=O)c1c(-c2c(F)cccc2Cl)noc1-c1cnn(-c2cccnc2)c1C(F)(F)F` [IB-68, S-methyl 3-(2-chloro-6-fluorophenyl)-5-(1-(pyridin-3-yl)-5-(trifluoromethyl)-1H-pyrazol-4-yl)isoxazole-4-carbothioate]: the IC50 is 10 to 100 nM in assay [1], < 10 nM with IFN-γ and < 10 nM with IL-17FF.

As to `COC(=O)c1c(-c2c(F)cccc2Cl)noc1-c1cnn(-c2ccncc2)c1C(F)(F)F` [IB-69, methyl 3-(2-chloro-6-fluorophenyl)-5-(1-(pyridin-4-yl)-5-(trifluoromethyl)-1H-pyrazol-4-yl)isoxazole-4-carboxylate], the IC50 (in assay [1]; in the assay on IFN-γ; in the assay with IL-17FF) was 10 to 100 nM in each case.

On to `COC(=O)c1c(-c2ccccc2Cl)noc1-c1cnn(-c2cccc(Cl)c2)c1C(F)(F)F` [IB-71, methyl 3-(2-chlorophenyl)-5-(1-(3-chlorophenyl)-5-(trifluoromethyl)-1H-pyrazol-4-yl)isoxazole-4-carboxylate], for which the IC50 (in assay [1]; in the assay with IFN-γ; with IL-17FF) was < 10 nM throughout.

Take `CCOC(=O)c1c(-c2c(F)cccc2Cl)noc1-c1cnn(-c2ccccc2Br)c1C(F)(F)F` [IB-72, ethyl 5-(1-(2-bromophenyl)-5-(trifluoromethyl)-1H-pyrazol-4-yl)-3-(2-chloro-6-fluorophenyl)isoxazole-4-carboxylate]: the IC50 (in assay [1]; in the assay with IFN-γ; in the assay with IL-17FF) was 100 to 1000 nM in each case.

With `COC(=O)c1c(-c2c(Cl)cccc2Cl)noc1-c1cnn(-c2cccc(Cl)c2)c1C(F)(F)F` [IB-75, methyl 5-(1-(3-chlorophenyl)-5-(trifluoromethyl)-1H-pyrazol-4-yl)-3-(2,6-dichlorophenyl)isoxazole-4-carboxylate], the IC50 (in assay [1]; with IFN-γ; in the assay with IL-17FF) was < 10 nM each time.

Consider `COC(=O)c1c(-c2ccc(Cl)cc2Cl)noc1-c1cnn(-c2cccc(Cl)c2)c1C(F)(F)F` [IB-76, methyl 5-(1-(3-chlorophenyl)-5-(trifluoromethyl)-1H-pyrazol-4-yl)-3-(2,4-dichlorophenyl)isoxazole-4-carboxylate], for which the IC50 was 100 to 1000 nM in assay [1], 100 to 1000 nM with IFN-γ and 10 to 100 nM with IL-17FF.

In the case of `COC(=O)c1c(-c2ccccc2F)noc1-c1cnn(-c2cccc(Cl)c2)c1C(F)(F)F` [IB-77, methyl 5-(1-(3-chlorophenyl)-5-(trifluoromethyl)-1H-pyrazol-4-yl)-3-(2-fluorophenyl)isoxazole-4-carboxylate], the IC50 (in assay [1]; in the assay with IFN-γ; with IL-17FF) was 10 to 100 nM in each case.

Regarding `CC(=O)Nc1cccc(-n2ncc(-c3onc(-c4c(F)cccc4Cl)c3C(=O)OC(C)C)c2C(F)(F)F)c1` [IB-78, isopropyl 5-(1-(3-acetamidophenyl)-5-(trifluoromethyl)-1H-pyrazol-4-yl)-3-(2-chloro-6-fluorophenyl)isoxazole-4-carboxylate], the IC50 in assay [1] is 100 to 1000 nM; with IFN-γ, 100 to 1000 nM; in the assay with IL-17FF it was 10 to 100 nM.

In the case of `CC(C)NS(=O)(=O)c1cccc(-n2ncc(-c3onc(-c4c(F)cccc4Cl)c3C(=O)OC(C)C)c2C(F)(F)F)c1` [IB-79, isopropyl 3-(2-chloro-6-fluorophenyl)-5-(1-(3-(N-isopropylsulfamoyl)phenyl)-5-(trifluoromethyl)-1H-pyrazol-4-yl)isoxazole-4-carboxylate], the IC50 (in assay [1]; with IFN-γ; with IL-17FF) was 100 to 1000 nM each time.

Regarding `CCOC(=O)c1c(-c2c(F)cccc2Cl)noc1-c1cnn(Cc2ccccc2F)c1C(F)(F)F` [IB-80, ethyl 3-(2-chloro-6-fluorophenyl)-5-(1-(2-fluorobenzyl)-5-(trifluoromethyl)-1H-pyrazol-4-yl)isoxazole-4-carboxylate], the IC50 (in assay [1]; in the assay with IFN-γ; in the assay with IL-17FF) was 1000 to 10000 nM throughout.

With `CCOC(=O)c1c(-c2c(F)cccc2Cl)noc1-c1cnn(CC2CCOCC2)c1C(F)(F)F` [IB-81, ethyl 3-(2-chloro-6-fluorophenyl)-5-(1-((tetrahydro-2H-pyran-4-yl)methyl)-5-(trifluoromethyl)-1H-pyrazol-4-yl)isoxazole-4-carboxylate], the IC50 (in assay [1]; with IFN-γ; in the assay on IL-17FF) was 100 to 1000 nM in each case.

`CC(C)OC(=O)c1c(-c2c(F)cccc2Cl)noc1-c1cnn(-c2ccncc2)c1C(F)(F)F` [IB-82, isopropyl 3-(2-chloro-6-fluorophenyl)-5-(1-(pyridin-4-yl)-5-(trifluoromethyl)-1H-pyrazol-4-yl)isoxazole-4-carboxylate]: the IC50 (in assay [1]; in the assay on IFN-γ; with IL-17FF) was 10 to 100 nM throughout.

Take `Fc1cccc(Cl)c1-c1noc(-c2cnn(-c3ccncc3)c2C(F)(F)F)c1Br` [IB-83, 4-bromo-3-(2-chloro-6-fluorophenyl)-5-(1-(pyridin-4-yl)-5-(trifluoromethyl)-1H-pyrazol-4-yl)isoxazole]: the IC50 in assay [1] lay in the range of 1000 to 10000 nM; with IFN-γ, 1000 to 10000 nM; in the assay with IL-17FF it was 100 to 1000 nM.

As to `CCOC(=O)c1c(-c2c(F)cccc2Cl)noc1-c1cnn(-c2ccccn2)c1C(F)(F)F` [IB-84, ethyl 3-(2-chloro-6-fluorophenyl)-5-(1-(pyridin-2-yl)-5-(trifluoromethyl)-1H-pyrazol-4-yl)isoxazole-4-carboxylate], the IC50 (in assay [1]; in the assay with IFN-γ; with IL-17FF) was < 10 nM each time.

`COC(=O)c1c(-c2c(F)cccc2Cl)noc1-c1cnn(-c2cccc(NC(C)=O)c2)c1C(F)(F)F` [IB-89, 5-(1-(3-acetamidophenyl)-5-(trifluoromethyl)-1H-pyrazol-4-yl)-3-(2-chloro-6-fluorophenyl)isoxazole-4-carboxylate]: the IC50 in assay [1] lay within 100 to 1000 nM; with IFN-γ, 10 to 100 nM; in the assay with IL-17FF, 10 to 100 nM.

Turning to `CCOC(=O)c1c(-c2c(F)cccc2Cl)noc1-c1cnn(-c2cccc([N+](=O)[O-])c2)c1C(F)(F)F` [IB-90, ethyl 3-(2-chloro-6-fluorophenyl)-5-(1-(3-nitrophenyl)-5-(trifluoromethyl)-1H-pyrazol-4-yl)isoxazole-4-carboxylate], the IC50 (in assay [1]; in the assay with IFN-γ; in the assay with IL-17FF) was 10 to 100 nM in each case.

With `COC(=O)c1c(-c2c(F)cccc2Cl)noc1-c1cnn(-c2cccc(N)c2)c1C(F)(F)F` [IB-92, methyl 5-(1-(3-aminophenyl)-5-(trifluoromethyl)-1H-pyrazol-4-yl)-3-(2-chloro-6-fluorophenyl)isoxazole-4-carboxylate], the IC50 (in assay [1]; with IFN-γ; in the assay on IL-17FF) was 10 to 100 nM throughout.

Take `CNC(=O)c1c(-c2c(F)cccc2Cl)noc1-c1cnn(-c2ccccn2)c1C(F)(F)F` [IB-93, 3-(2-chloro-6-fluorophenyl)-N-methyl-5-(1-(pyridin-2-yl)-5-(trifluoromethyl)-1H-pyrazol-4-yl)isoxazole-4-carboxamide]: the values for the IC50 (in assay [1]; in the assay with IFN-γ; in the assay on IL-17FF) were 1000 to 10000 nM, 100 to 1000 nM and 100 to 1000 nM, respectively.

As for `CCOC(=O)c1c(-c2c(F)cccc2Cl)noc1-c1cnn(-c2ccc([N+](=O)[O-])cc2)c1C(F)(F)F` [IB-94, ethyl 3-(2-chloro-6-fluorophenyl)-5-(1-(4-nitrophenyl)-5-(trifluoromethyl)-1H-pyrazol-4-yl)isoxazole-4-carboxylate], the IC50 (in assay [1]; with IFN-γ; with IL-17FF) was 1000 to 10000 nM throughout.

`CCOC(=O)c1c(-c2c(F)cccc2Cl)noc1-c1cnn(-c2ccccc2[N+](=O)[O-])c1C(F)(F)F` [IB-95, 3-(2-chloro-6-fluorophenyl)-5-(1-(2-nitrophenyl)-5-(trifluoromethyl)-1H-pyrazol-4-yl)isoxazole-4-carboxylate]: the figures for the IC50 (in assay [1]; with IFN-γ; in the assay with IL-17FF) were 100 to 1000 nM, 10 to 100 nM and 10 to 100 nM, respectively.

In the case of `CCOC(=O)c1c(-c2c(F)cccc2Cl)noc1-c1cnn(CC2CCCO2)c1C(F)(F)F` (stereo not drawn) [IB-96, ethyl 3-(2-chloro-6-fluorophenyl)-5-(1-((tetrahydrofuran-2-yl)methyl)-5-(trifluoromethyl)-1H-pyrazol-4-yl)isoxazole-4-carboxylate], the IC50 (in assay [1]; with IFN-γ; in the assay with IL-17FF) was 10 to 100 nM in each case.
